Test results reported in PMC10285648, “iTAG an optimized IMiD-induced degron for targeted protein degradation in human and murine cells” (iScience, 2023).

How the values were obtained:
[1] = tested on: Flag-HA-DCD23-EGFP; test: Degradation of Flag-HA-DCD23-EGFP in murine cells; type: cell-based, mouse; conditions: for DC50 / DCmax: 24h, flow cytometry
Protocol: Given the high degradation efficiency of DCD23 in human cells, we sought to test the applicability of this system in murine cells.
(§1) The protein lysates were probed for EGFP using western blotting. […] EGFP signal was then measured using flow cytometry. (3 independent experiments, normalized to the control and represented as mean ± SD). […] Data are plotted as Log2 fold change relative to DMSO versus Log10 of p value.
As an additional validation of iTAG (DCD23) induced degradation, we tested the same constructs in murine colorectal carcinoma cells (CT26) where we saw similar loss of EGFP with a panel of IMiD/CeLMODs (Figure S9B).

[2] = tested on: Flag-HA-DCD23-RBM39, Flag-HA-DCD23-SMS; test: Quantitative TMT proteomics of CT26 expressing iTAG-tagged RBM39 or SMS; type: cell-based, mouse; conditions: CT26, 10uM, 8h
Protocol: as §1
We then tested the degradation of RBM39 (nuclear) and SMS (cytoplasmic) N-terminally tagged with iTAG (DCD23) in CT26 and AT3 ([…]) (Figures 5C–5E).
Samples for quantitative proteomics were prepared using the SimPLIT workflow.[60] […] Samples were bath sonicated for 5 min, incubated at RT for 45 min and protein concentration was measured with the Bradford Protein Assay (Biorad) according to manufacturer instructions. […]
LC-MS analysis was performed on the Dionex Ultimate 3000 UHPLC system coupled with the Orbitrap Lumos mass spectrometer (Thermo Scientific). Samples were analyzed with the EASY-Spray C18 capillary column (75 μm × 50 cm, 2 μm) at 50°C. […] MS3 quantification was obtained with higher-energy collisional dissociation (HCD) fragmentation of the top 5 most abundant CID fragments isolated with synchronous precursor selection (SPS). […]
The SEQUEST-HT search engine was used to analyze the acquired mass spectra in Proteome Discoverer 2.4 (Thermo Scientific) for protein identification and quantification. […]

Compound: O=C1CC[C@H](N2Cc3c(OCc4ccc(CN5CCOCC5)cc4)cccc3C2=O)C(=O)N1 [CC220, Iberdomide]
- time of onset of loss of EGFP signal ([1]; 2208L and PyMT): ≤ 1 h
- degradation of DCD23 tagged EGFP ([1]; 2208L and PyMT, 24 h, western blotting): efficiently degraded
- DC50 ([1]; 2208L): 2.7 nM
- DCmax ([1]; 2208L): 88%
- DC50 ([1]; PyMT): 4.3 nM
- DCmax ([1]; PyMT): 81%
- degradation of iTAG (DCD23) tagged RBM39 and SMS [2]: robust degradation
- off-targets in proteome [2]: without any detected off-targets
